Reference: ChEMBL document CHEMBL1201861, “Genomics of Drug Sensitity in Cancer screening data, Wellcome Trust Sanger Institute”

How the values were obtained:
SCC-3 = assay: cells; format: functional, cell-based; conditions: Homo sapiens;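 note: cell viability assay measuring inhibition of SCC-3 cell growth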
Description: SANGER: Inhibition of human SCC-3 cell growth in a cell viability assay.

LB647-SCLC = assay: cells; format: functional, cell-based; conditions: Homo sapiens;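 note: cell growth inhibition, read out by a viability assay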
Description: SANGER: Inhibition of human LB647-SCLC cell growth in a cell viability assay.

NCI-H2196 = assay: cells; format: functional, cell-based; conditions: Homo sapiens;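 note: cell viability assay used as the readout of growth inhibition in NCI-H2196 cells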
Description: SANGER: Inhibition of human NCI-H2196 cell growth in a cell viability assay.

REH = assay: cells; format: functional, cell-based; conditions: Homo sapiens;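 note: growth inhibition of REH cells determined with a cell viability read-out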
Description: SANGER: Inhibition of human REH cell growth in a cell viability assay.

NCI-H1882 = assay: cells; format: functional, cell-based; conditions: Homo sapiens
Description: SANGER: Inhibition of human NCI-H1882 cell growth in a cell viability assay.

NCI-H719 = assay: cells; format: functional, cell-based; conditions: Homo sapiens;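 note: growth inhibition of the cultured cell line, read out with a viability assay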
Description: SANGER: Inhibition of human NCI-H719 cell growth in a cell viability assay.

HSC-4 = assay: cells; format: functional, cell-based, Homo sapiens; conditions: Homo sapiens, HSC-4;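 note: growth inhibition of human HSC-4 cells, read out with a cell viability assay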
Description: SANGER: Inhibition of human HSC-4 cell growth in a cell viability assay.

BC-3 = assay: cells; format: functional, cell-based; conditions: Homo sapiens;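 note: cell viability assay measuring growth inhibition of human BC-3 cells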
Description: SANGER: Inhibition of human BC-3 cell growth in a cell viability assay.

TE-15 = assay: cells; format: functional, cell-based; conditions: Homo sapiens;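 note: cell viability readout of growth inhibition in TE-15 cells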
Description: SANGER: Inhibition of human TE-15 cell growth in a cell viability assay.

NCI-H1963 = assay: cells; format: functional, cell-based; conditions: Homo sapiens
Description: SANGER: Inhibition of human NCI-H1963 cell growth in a cell viability assay.

SUP-T1 = assay: cells; format: functional, cell-based; conditions: Homo sapiens;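 note: growth inhibition of human SUP-T1 cells, read out as cell viability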
Description: SANGER: Inhibition of human SUP-T1 cell growth in a cell viability assay.

CESS = assay: SANGER: Inhibition of human CESS cell growth in a cell viability assay.; format: functional, cell-based
LOUCY = assay: cells; format: functional, cell-based; conditions: Homo sapiens;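 note: growth inhibition of human LOUCY cells, read out with a cell viability assay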
Description: SANGER: Inhibition of human LOUCY cell growth in a cell viability assay.

SK-MM-2 = assay: cells; format: functional, cell-based; conditions: Homo sapiens;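 note: growth inhibition of human SK-MM-2 cells, read out with a cell viability assay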
Description: SANGER: Inhibition of human SK-MM-2 cell growth in a cell viability assay.

PF-382 = assay: cells; format: functional, cell-based; conditions: Homo sapiens
Description: SANGER: Inhibition of human PF-382 cell growth in a cell viability assay.

NCI-H322M = assay: cells; format: functional, cell-based; conditions: Homo sapiens;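 note: cell viability assay measuring inhibition of growth of human NCI-H322M cells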
Description: SANGER: Inhibition of human NCI-H322M cell growth in a cell viability assay.

KARPAS-422 = assay: cells; format: functional, cell-based; conditions: Homo sapiens
Description: SANGER: Inhibition of human KARPAS-422 cell growth in a cell viability assay.

IM-9 = assay: SANGER: Inhibition of human IM-9 cell growth in a cell viability assay.; format: functional, cell-based
SNU-423 = assay: cells; format: functional, cell-based, Homo sapiens; conditions: Homo sapiens, SNU-423
Description: SANGER: Inhibition of human SNU-423 cell growth in a cell viability assay.

K052 = assay: cells; format: functional, cell-based; conditions: Homo sapiens;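 note: Read-out from a cell viability assay, IC50 reflecting suppression of K052 cell growth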
Description: SANGER: Inhibition of human K052 cell growth in a cell viability assay.

LC-1F = assay: cells; format: functional, cell-based; conditions: Homo sapiens;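 note: growth inhibition of human LC-1F cells, read out with a cell viability assay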
Description: SANGER: Inhibition of human LC-1F cell growth in a cell viability assay.

NCI-H2009 = assay: cells; format: functional, cell-based, Homo sapiens; conditions: Homo sapiens, NCI-H2009;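 note: cell viability assay measuring inhibition of NCI-H2009 cell growth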
Description: SANGER: Inhibition of human NCI-H2009 cell growth in a cell viability assay.

NCI-H64 = assay: cells; format: functional, cell-based; conditions: Homo sapiens;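 note: growth inhibition of NCI-H64 cells, read out with a cell viability assay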
Description: SANGER: Inhibition of human NCI-H64 cell growth in a cell viability assay.

UACC-812 = assay: cells; format: functional, cell-based; conditions: Homo sapiens
Description: SANGER: Inhibition of human UACC-812 cell growth in a cell viability assay.

U-698-M = assay: cells; format: functional, cell-based; conditions: Homo sapiens
Description: SANGER: Inhibition of human U-698-M cell growth in a cell viability assay.

DMS-153 = assay: cells; format: functional, cell-based; conditions: Homo sapiens
Description: SANGER: Inhibition of human DMS-153 cell growth in a cell viability assay.

EB-3 = assay: cells; format: functional, cell-based; conditions: Homo sapiens;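 note: human EB-3 cells, growth inhibition read out via a cell viability assay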
Description: SANGER: Inhibition of human EB-3 cell growth in a cell viability assay.

THP-1 = assay: cells; format: functional, cell-based; conditions: Homo sapiens;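 note: growth inhibition of THP-1 cells, read out via a cell viability assay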
Description: SANGER: Inhibition of human THP-1 cell growth in a cell viability assay.

NB1 = assay: cells; format: functional, cell-based; conditions: Homo sapiens;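 note: reduction of NB1 cell proliferation, read out with a viability assay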
Description: SANGER: Inhibition of human NB1 cell growth in a cell viability assay.

CHP-126 = assay: cells; format: functional, cell-based; conditions: Homo sapiens
Description: SANGER: Inhibition of human CHP-126 cell growth in a cell viability assay.

WSU-NHL = assay: cells; format: functional, cell-based; conditions: Homo sapiens;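 note: growth inhibition of human WSU-NHL cells, read out with a cell viability assay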
Description: SANGER: Inhibition of human WSU-NHL cell growth in a cell viability assay.

CA46 = assay: cells; format: functional, cell-based; conditions: Homo sapiens;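 note: growth inhibition of human CA46 cells, read out by a cell viability assay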
Description: SANGER: Inhibition of human CA46 cell growth in a cell viability assay.

NCI-H522 = assay: cells; format: functional, cell-based, Homo sapiens; conditions: Homo sapiens, NCI-H522;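 note: cell viability assay measuring growth inhibition of human NCI-H522 cells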
Description: SANGER: Inhibition of human NCI-H522 cell growth in a cell viability assay.

NCI-H2227 = assay: cells; format: functional, cell-based; conditions: Homo sapiens;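 note: growth inhibition of the human cell line, read out with a cell viability assay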
Description: SANGER: Inhibition of human NCI-H2227 cell growth in a cell viability assay.

NCI-H1522 = assay: cells; format: functional, cell-based; conditions: Homo sapiens;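 note: growth inhibition of NCI-H1522 cells, read out with a cell viability assay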
Description: SANGER: Inhibition of human NCI-H1522 cell growth in a cell viability assay.

MONO-MAC-6 = assay: cells; format: functional, cell-based; conditions: Homo sapiens;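 note: cell viability assay measuring growth inhibition of human MONO-MAC-6 cells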
Description: SANGER: Inhibition of human MONO-MAC-6 cell growth in a cell viability assay.

RL95-2 = assay: cells; format: functional, cell-based; conditions: Homo sapiens;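 note: RL95-2 growth inhibition determined through a cell viability readout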
Description: SANGER: Inhibition of human RL95-2 cell growth in a cell viability assay.

TALL-1 = assay: cells; format: functional, cell-based; conditions: Homo sapiens;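 note: growth inhibition of cultured human TALL-1 cells, read out by a cell viability assay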
Description: SANGER: Inhibition of human TALL-1 cell growth in a cell viability assay.

ECC12 = assay: cells; format: functional, cell-based; conditions: Homo sapiens
Description: SANGER: Inhibition of human ECC12 cell growth in a cell viability assay.

SU-DHL-1 = assay: SANGER: Inhibition of human SU-DHL-1 cell growth in a cell viability assay.; format: functional, cell-based
BC1 cell line = assay: SANGER: Inhibition of human BC-1 cell growth in a cell viability assay.; format: functional, cell-based
SIG-M5 = assay: cells; format: functional, cell-based; conditions: Homo sapiens;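 note: cell viability assay read-out, measuring how strongly growth of cultured human SIG-M5 cells is inhibited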
Description: SANGER: Inhibition of human SIG-M5 cell growth in a cell viability assay.

NCI-H1694 = assay: cells; format: functional, cell-based; conditions: Homo sapiens;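 note: cell viability assay measuring inhibition of growth in human NCI-H1694 cells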
Description: SANGER: Inhibition of human NCI-H1694 cell growth in a cell viability assay.

EB2 = assay: cells; format: functional, cell-based; conditions: Homo sapiens;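 note: growth inhibition of EB2 cells, read out with a cell viability assay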
Description: SANGER: Inhibition of human EB2 cell growth in a cell viability assay.

MRK-nu-1 = assay: cells; format: functional, cell-based; conditions: Homo sapiens;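 note: cell viability assay measuring growth suppression of human MRK-nu-1 cells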
Description: SANGER: Inhibition of human MRK-nu-1 cell growth in a cell viability assay.

IMR-5 = assay: cells; format: functional, cell-based; conditions: Homo sapiens;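 note: growth inhibition of human IMR-5 cells, read out with a cell viability assay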
Description: SANGER: Inhibition of human IMR-5 cell growth in a cell viability assay.

P31-FUJ = assay: cells; format: functional, cell-based; conditions: Homo sapiens;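 note: growth inhibition of P31-FUJ cells, read out with a viability assay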
Description: SANGER: Inhibition of human P31-FUJ cell growth in a cell viability assay.

SIMA = assay: cells; format: functional, cell-based, Homo sapiens; conditions: Homo sapiens, SIMA;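 note: growth inhibition of SIMA cells, measured with a cell viability readout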
Description: SANGER: Inhibition of human SIMA cell growth in a cell viability assay.

HCC1599 = assay: cells; format: functional, cell-based; conditions: Homo sapiens;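 note: growth inhibition of HCC1599 cells, read out in a cell viability assay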
Description: SANGER: Inhibition of human HCC1599 cell growth in a cell viability assay.

EW-22 = assay: cells; format: functional, cell-based; conditions: Homo sapiens;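 note: growth inhibition of the EW-22 cell line, measured with a cell viability readout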
Description: SANGER: Inhibition of human EW-22 cell growth in a cell viability assay.

For `CCC1=C[C@@H]2CN(C1)Cc1c([nH]c3ccccc13)[C@@](C(=O)OC)(c1cc3c(cc1OC)N(C)[C@H]1[C@@](O)(C(=O)OC)[C@H](OC(C)=O)[C@]4(CC)C=CCN5CC[C@]31[C@@H]54)C2` [VINORELBINE], the IC50 (SCC-3) was over 0.064 µM, the IC50 (LB647-SCLC) was 0.00689 µM and the IC50 (NCI-H2196) was over 0.064 µM. The IC50 (REH) was 0.00721 µM, the IC50 (NCI-H1882) was 0.0365 µM and the IC50 (NCI-H719) was over 0.064 µM. For the same compound, the IC50 (HSC-4) was over 0.064 µM, the IC50 (BC-3) was 0.0311 µM and the IC50 (TE-15) was 0.0031 µM. The IC50 (NCI-H1963) was 0.0303 µM, the IC50 (SUP-T1) was 0.00472 µM and the IC50 (CESS) was 0.00504 µM. For the same compound, the IC50 (LOUCY) was 0.00969 µM, the IC50 (SK-MM-2) was over 0.064 µM and the IC50 (PF-382) was 0.0117 µM. The IC50 (NCI-H322M) was over 0.064 µM, the IC50 (KARPAS-422) was 0.0233 µM and the IC50 (IM-9) was over 0.064 µM. The IC50 (SNU-423) was 0.00554 µM, the IC50 (K052) was 0.0212 µM and the IC50 (LC-1F) was 0.0448 µM. It also gave an IC50 (NCI-H2009) of 0.00846 µM, an IC50 (NCI-H64) of 0.00727 µM and an IC50 (UACC-812) of over 0.064 µM. For the same compound, the IC50 (U-698-M) was 0.0122 µM, the IC50 (DMS-153) was over 0.064 µM and the IC50 (EB-3) was over 0.064 µM. The IC50 (THP-1) was over 0.064 µM, the IC50 (NB1) was 0.0261 µM and the IC50 (CHP-126) was over 0.064 µM. It also gave an IC50 (WSU-NHL) of 0.0337 µM, an IC50 (CA46) of 0.0222 µM and an IC50 (NCI-H522) of 0.000535 µM. For the same compound, the IC50 (NCI-H2227) was over 0.064 µM, the IC50 (NCI-H1522) was over 0.064 µM and the IC50 (MONO-MAC-6) was 0.0206 µM. The IC50 (RL95-2) was 0.00713 µM, the IC50 (TALL-1) was over 0.064 µM and the IC50 (ECC12) was 0.000509 µM. The IC50 (SU-DHL-1) was 0.00945 µM, the IC50 (BC1 cell line) was 0.00939 µM and the IC50 (SIG-M5) was 0.00248 µM. The IC50 (NCI-H1694) was 0.0444 µM, the IC50 (EB2) was 0.0067 µM and the IC50 (MRK-nu-1) was 0.00447 µM. It also gave an IC50 (IMR-5) of 0.0113 µM, an IC50 (P31-FUJ) of over 0.064 µM and an IC50 (SIMA) of over 0.064 µM. The IC50 (HCC1599) was 0.0106 µM.
`CNC(=O)c1cc(Oc2ccc(NC(=O)Nc3ccc(Cl)c(C(F)(F)F)c3)cc2)ccn1` [SORAFENIB] showed an IC50 (SCC-3) of over 4 µM, an IC50 (LB647-SCLC) of over 4 µM and an IC50 (NCI-H2196) of over 4 µM. It also gave an IC50 (REH) of over 4 µM, an IC50 (NCI-H1882) of over 4 µM and an IC50 (NCI-H719) of over 4 µM. The IC50 (BC-3) was over 4 µM, the IC50 (TE-15) was over 4 µM and the IC50 (NCI-H1963) was over 4 µM. The IC50 (SUP-T1) was over 4 µM, the IC50 (CESS) was over 4 µM and the IC50 (LOUCY) was over 4 µM. For the same compound, the IC50 (SK-MM-2) was over 4 µM, the IC50 (PF-382) was over 4 µM and the IC50 (NCI-H322M) was over 4 µM. The IC50 (KARPAS-422) was over 4 µM, the IC50 (IM-9) was over 4 µM and the IC50 (K052) was 2.75 µM. The IC50 (LC-1F) was over 4 µM, the IC50 (NCI-H64) was over 4 µM and the IC50 (UACC-812) was over 4 µM. The IC50 (U-698-M) was over 4 µM, the IC50 (DMS-153) was over 4 µM and the IC50 (EB-3) was over 4 µM. The IC50 (THP-1) was over 4 µM, the IC50 (NB1) was over 4 µM and the IC50 (CHP-126) was over 4 µM. The IC50 (EW-22) was over 4 µM, the IC50 (WSU-NHL) was over 4 µM and the IC50 (CA46) was over 4 µM. For the same compound, the IC50 (NCI-H2227) was over 4 µM, the IC50 (NCI-H1522) was over 4 µM and the IC50 (MONO-MAC-6) was 0.00418 µM. The IC50 (RL95-2) was over 4 µM, the IC50 (TALL-1) was over 4 µM and the IC50 (ECC12) was over 4 µM. The IC50 (SU-DHL-1) was over 4 µM, the IC50 (BC1 cell line) was 3.74 µM and the IC50 (SIG-M5) was 2.42 µM. The IC50 (NCI-H1694) was over 4 µM, the IC50 (EB2) was over 4 µM and the IC50 (MRK-nu-1) was 3.61 µM. The IC50 (IMR-5) was over 4 µM, the IC50 (P31-FUJ) was over 4 µM and the IC50 (SIMA) was over 4 µM. It also gave an IC50 (HCC1599) of over 4 µM.
`CC1=C2C[C@H]3[C@@H](CC=C4C[C@@H](O)CC[C@@]43C)[C@@H]2CC[C@]12O[C@@H]1C[C@H](C)CN[C@H]1[C@H]2C` [CYCLOPAMINE] was tested, and the IC50 (SCC-3) was over 16 µM, the IC50 (LB647-SCLC) was over 16 µM and the IC50 (NCI-H2196) was over 16 µM. The IC50 (REH) was over 16 µM, the IC50 (NCI-H1882) was over 16 µM and the IC50 (NCI-H719) was over 16 µM. It also gave an IC50 (BC-3) of over 16 µM, an IC50 (TE-15) of over 16 µM and an IC50 (NCI-H1963) of over 16 µM. For the same compound, the IC50 (SUP-T1) was over 16 µM, the IC50 (CESS) was over 16 µM and the IC50 (LOUCY) was over 16 µM. The IC50 (SK-MM-2) was over 16 µM, the IC50 (PF-382) was over 16 µM and the IC50 (NCI-H322M) was over 16 µM. The IC50 (KARPAS-422) was over 16 µM, the IC50 (IM-9) was over 16 µM and the IC50 (K052) was over 16 µM. For the same compound, the IC50 (LC-1F) was over 16 µM, the IC50 (NCI-H64) was over 16 µM and the IC50 (UACC-812) was over 16 µM. For the same compound, the IC50 (U-698-M) was over 16 µM, the IC50 (DMS-153) was over 16 µM and the IC50 (EB-3) was over 16 µM. It also gave an IC50 (THP-1) of over 16 µM, an IC50 (NB1) of over 16 µM and an IC50 (CHP-126) of over 16 µM. It also gave an IC50 (WSU-NHL) of over 16 µM, an IC50 (CA46) of over 16 µM and an IC50 (NCI-H2227) of over 16 µM. The IC50 (NCI-H1522) was over 16 µM, the IC50 (MONO-MAC-6) was over 16 µM and the IC50 (RL95-2) was over 16 µM. For the same compound, the IC50 (TALL-1) was over 16 µM, the IC50 (ECC12) was over 16 µM and the IC50 (SU-DHL-1) was over 16 µM. The IC50 (BC1 cell line) was over 16 µM, the IC50 (SIG-M5) was over 16 µM and the IC50 (NCI-H1694) was over 16 µM. For the same compound, the IC50 (EB2) was over 16 µM, the IC50 (MRK-nu-1) was over 16 µM and the IC50 (IMR-5) was over 16 µM. It also gave an IC50 (P31-FUJ) of over 16 µM, an IC50 (SIMA) of over 16 µM and an IC50 (HCC1599) of over 16 µM.
